This note sets out measurements from paper PMC11054271, “ABCG2 Transports the Flukicide Nitroxynil and Affects Its Biodistribution and Secretion into Milk” (Pharmaceutics, 2024).

In general, AUC refers to the area under the concentration-time curve, a measure of exposure.

Like-named read-outs stand apart in the source and are kept apart here.

Format in all cases: in vivo
Series [1] deals with murine Abcg2. The experiment in a line: Plasma pharmacokinetics in wild-type and Abcg2−/− male mice. The note with it: 10 mg/kg s.c. The procedure: (§1) All in vivo experiments were carried out using wild-type and Abcg2^−/− mice aged between 8 and 17 weeks, all of >99% FVB/N genetic background, generated and gently supplied by A. H. Schinkel (Netherlands Cancer Institute). Mice were housed and handled complying with institutional and ARRIVE guidelines and European legislation (EU Directive 2010/63/EU for animal experiments). Additionally, experimental procedures were approved by the Animal Care and Use Committee of the University of León and the Junta de Castilla y León (ULE_011_2019).
For pharmacokinetic experiments, a single dose of nitroxynil at 10 mg/kg was administered subcutaneously to wild-type and Abcg2^−/− male mice (n = 4–5, for each time point). Distomicide® (250 mg/mL) commercial solution was dissolved in saline (sodium chloride 0.9%) and dosed at 200 μL per 30 g body weight. Blood samples were collected at different time points (0.5, 3, 4.5, 6, 24, 48 and 96 h) and heparinized blood samples were centrifugated for 15 min at 3000× g. […]
(§2) Plasma, milk and tissue samples from each animal were individually processed and analyzed without pooling, while samples from transport assays were not processed. […]
(§3) Waters 2695 separation module and Waters 2998 UV photodiode array detector set at 270 nm were used for samples analysis. […] Limit of detection (LOD) and quantification (LOQ) were calculated as previously described. […]

Series [2] deals with murine Abcg2. The series can be described thus: Milk secretion experiment in lactating wild-type and Abcg2−/− female mice. The note with it: FVB/N, mouse, intravenous, lactating Abcg2−/− female mice, 30 min after 10 mg/kg i.v. The procedure:
as §1
(§4) Pups of approximately 10 days old were separated from their mothers (wild-type (n = 10) and Abcg2^−/− (n = 11) female mice) 3 h before beginning the experiment. Milk secretion experiments were performed as previously described. Nitroxynil solution was prepared by diluting Distomicide® (250 mg/mL) commercial solution in saline and administered at a dose of 150 μL/30 g bw into the tail vein under anesthesia with isoflurane. An amount of 200 μL oxytocin (1 IU/mL) was administrated subcutaneously 10 min before milk collection. Blood and milk samples were collected from retro-orbital sinus and mammary gland, respectively, 30 min after nitroxynil administration.
(§5) Plasma, milk and tissue samples from each animal were individually processed and analyzed without pooling, while samples from transport assays were not processed. Tissue samples were homogenized in a mixture of 50% water/50% methanol HCl 0.5% (v/v); 1 mL solution per 0.1 g tissue. The entire amount of collected milk (74.7–295.1 mg) and 100 μL plasma and tissue homogenates were processed. To each sample, 10 μL of a nitrofurantoin solution (10 μg/mL for plasma and milk and 2 μg/mL for homogenized tissues) was added as an internal standard and 150 μL acetonitrile was used to precipitate the proteins. The mixture was vortexed horizontally for 15 min and centrifugated at 10,000× g for 5 min at 4 °C. Supernatant was transferred to a new tube and dried at 40 °C under N2 stream. Samples were reconstituted in 100 μL of mobile phase and 50 μL was injected into HPLC. Standards were subjected to the same procedures as samples.
(§6) Waters 2695 separation module and Waters 2998 UV photodiode array detector set at 270 nm were used for samples analysis. Chromatographic conditions for nitroxynil detection were based on previously described methods, with minor modifications. Chromatographic separation was achieved on a reverse-phase column (Synergy 4 μm Hydro–RP 80 Å, 250 × 4.60 mm; Phenomenex®, Torrance, CA, USA) using an isocratic binary mobile phase consisting of 25 mM potassium phosphate monobasic (KH2PO4), pH 4: acetonitrile (70:30 for culture samples and 80:20 for animal samples) at a flow rate of 1 mL/min. Autosampler and column temperature were 4 °C and 40 °C, respectively. Limit of detection (LOD) and quantification (LOQ) were calculated as previously described. For cell culture samples, LOD and LOQ were 0.003 μg/mL and 0.007 μg/mL, respectively. For in vivo samples, LOD was in the range of 0.01–0.07 μg/mL and LOQ in the range of 0.03–0.15 μg/mL.

The test system of series [3] is T1, murine Abcg2.
T1 construct: from tissue; host or cells: whole animal: wild-type vs Abcg2-/- mice, >99% FVB/N background
Described as above. Conditions: FVB/N, mouse, intravenous, lactating wild-type female mice, 30 min after 10 mg/kg i.v. The procedure: as §1, §4, §5, §6

For series [4], the target named is T2, murine Abcg2 (Mus musculus, UniProt Q7TMS5).
T2 sequence (Q7TMS5 1-657): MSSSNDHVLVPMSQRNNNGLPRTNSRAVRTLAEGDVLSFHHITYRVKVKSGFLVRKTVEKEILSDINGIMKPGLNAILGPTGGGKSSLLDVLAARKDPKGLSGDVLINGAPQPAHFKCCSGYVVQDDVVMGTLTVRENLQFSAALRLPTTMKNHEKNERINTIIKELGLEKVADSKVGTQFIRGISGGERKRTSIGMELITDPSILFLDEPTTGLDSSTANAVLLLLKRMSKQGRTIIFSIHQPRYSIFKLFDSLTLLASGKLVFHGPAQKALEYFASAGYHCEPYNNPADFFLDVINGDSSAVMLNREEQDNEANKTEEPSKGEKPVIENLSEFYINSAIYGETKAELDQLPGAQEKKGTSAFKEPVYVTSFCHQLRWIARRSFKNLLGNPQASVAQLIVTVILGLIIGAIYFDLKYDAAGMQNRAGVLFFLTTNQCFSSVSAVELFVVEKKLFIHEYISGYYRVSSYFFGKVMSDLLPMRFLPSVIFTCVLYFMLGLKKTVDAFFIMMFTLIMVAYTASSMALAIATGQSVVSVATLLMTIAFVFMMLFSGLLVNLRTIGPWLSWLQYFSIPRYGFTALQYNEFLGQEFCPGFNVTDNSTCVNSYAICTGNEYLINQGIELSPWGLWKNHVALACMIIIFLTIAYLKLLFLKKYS
Described as above. Also noted: from tissue; host or cells: whole animal: wild-type vs Abcg2-/- mice, >99% FVB/N background. Conditions: lactating female mice, 30 min after 10 mg/kg i.v. The protocol: as §1
Pups of approximately 10 days old were separated from their mothers (wild-type (n = 10) and Abcg2^−/− (n = 11) female mice) 3 h before beginning the experiment. Milk secretion experiments were performed as previously described. Nitroxynil solution was prepared by diluting Distomicide® (250 mg/mL) commercial solution in saline and administered at a dose of 150 μL/30 g bw into the tail vein under anesthesia with isoflurane. […]
as §2, §3

The mark [5] stands for this setting: milk and plasma, read-out: Milk-to-plasma ratio.
Where [6] appears, read: milk, read-out: Milk concentration.
Where [7] appears, read: plasma, read-out: Plasma concentration.

`N#Cc1cc(I)c(O)c([N+](=O)[O-])c1` [nitroxynil]: the AUC in the series with murine Abcg2 [1] (FVB/N, mouse, plasma, sc, Abcg2−/− male mice, 0.5-96 h) stood at 3530 ± 130 µg·h/mL. Moreover, the “Time of Cmax (sampling point)” value with murine Abcg2 [1] (both type of mice (wild-type and Abcg2−/−), male) is on record as 3 h. Also, the Kp at 30 min with murine Abcg2 [2] (setting [5]) is 0.1 ± 0.03; with murine Abcg2 [3] (setting [5]), 0.3 ± 0.1. Moreover, the concentration at 30 min turned out to be 8100 ± 1000 ng/mL in the series with murine Abcg2 [2] (setting [6]), 62800 ± 13900 ng/mL in the series on murine Abcg2 [2] (setting [7]), 15700 ± 6300 ng/mL in the series on murine Abcg2 [3] (setting [6]) and 58800 ± 11200 ng/mL with murine Abcg2 [3] (setting [7]). Also, the “Milk concentration, fold higher in wild-type compared with Abcg2−/−” value at murine Abcg2 [4] is listed as 1.9 fold. The “Milk-to-plasma ratio, fold higher in wild-type compared with Abcg2−/−” value on murine Abcg2 [4] stood at 2.1 fold.
